We go through 3 molecules from patent publication EP0437367A2, “Compositions and methods for inhibiting osteoclast cellular adhesion to bone” (MERCK & CO. INC., priority 1990, dated 1991).

Bridge positions count the residues as written; N and C are the ends.

Type in all cases: cell-based
The test system of test [1] is chicken osteoclasts. Kind of test: resorption by chicken osteoclasts, release of 3H proline from labelled bone particles. The protocol:
Osteoclasts from the long bones of egg laying hens were isolated by the methods of Zambonin Zallone et al. (1989) and Blair et al., J. Cell Biol. 102: 1164-1172 (1986). Medullary bone was harvested with scalpels from split femora and tibiae of laying hens (Dekalb XL) that were on a Ca deficient diet (5070C- 9, Purina Mills Inc., St. Louis) for 3-6 wks. After washing in PBS 4°C, the suspension was pressed through a 110 um nylon mesh and then osmotically shocked in 0.2% NaCl for 3 min 37°C to lyse red blood cells. The cells were collected at 350xg (5 min, 4°C), and osteoclasts were sedimented through 70% serum for 90 min at 4°C in 50 ml tubes (Fisher). The bottom 5 ml was then layered over a 3 step (1.073, 1.099, 1.143 g/cm³) Nycodenz gradient (Accurate, Ct) and spun at 350xg, 20 min, 4°C. […] Cells excluding trypan blue (Gibco) were immediately counted on a hemocytometer (Fisher) and aliquoted at 1-2x 10⁶ total cells (not counting red blood cells)/ well of 48 well plates (Costar), no. […]
Therefore, for 1 day resorption experiments, unlabelled bone particles (50 ug, <20 um fraction) were first added to chicken cells at day 3 followed by labelled bone (100 ug, 20- 53 um) plus test compounds (Merck) at day 5. Alternatively, labelled bone (100 ug) plus compounds were added at day 3 and the media counted at day 6 with a LKB liquid scintillation counter. […]

The subject of test [2] is chicken osteoclasts. Briefly: attachment assay of 3H proline labelled bone particles to chicken osteoclasts. Particulars: chicken osteoclasts after 5-6 days culture. The protocol: Attachment of ³H proline labelled bone particles (20- 53 um) was followed with time by assaying free and bound pools. Chicken osteoclasts in 48 well plates were given 100 ug of labelled bone particles. Free was defined as particles liberated by 3x swirling of cultures with media. Bound was defined as particles liberated after 6 hr incubation and 2x swirling in 1N NaOH. All cells were completely disrupted by the latter treatment. Samples were then ashed in a Packard 306 oxidizer (Camberra Inst., NJ) and counted (LKB).
Free end bound particles of bone labelled with [³H] proline were assayed as a function of incubation time with chicken osteoclasts after 5-6 days culture at 37°C. […] At this echistatin concentration, resorption was inhibited by 40% with little effect on osteoclast morphology.

Test [3] addresses T1, rat osteoclasts (Rattus norvegicus, UniProt F1LZX9+Q8R2H2).
T1 sequence (F1LZX9 31-1043): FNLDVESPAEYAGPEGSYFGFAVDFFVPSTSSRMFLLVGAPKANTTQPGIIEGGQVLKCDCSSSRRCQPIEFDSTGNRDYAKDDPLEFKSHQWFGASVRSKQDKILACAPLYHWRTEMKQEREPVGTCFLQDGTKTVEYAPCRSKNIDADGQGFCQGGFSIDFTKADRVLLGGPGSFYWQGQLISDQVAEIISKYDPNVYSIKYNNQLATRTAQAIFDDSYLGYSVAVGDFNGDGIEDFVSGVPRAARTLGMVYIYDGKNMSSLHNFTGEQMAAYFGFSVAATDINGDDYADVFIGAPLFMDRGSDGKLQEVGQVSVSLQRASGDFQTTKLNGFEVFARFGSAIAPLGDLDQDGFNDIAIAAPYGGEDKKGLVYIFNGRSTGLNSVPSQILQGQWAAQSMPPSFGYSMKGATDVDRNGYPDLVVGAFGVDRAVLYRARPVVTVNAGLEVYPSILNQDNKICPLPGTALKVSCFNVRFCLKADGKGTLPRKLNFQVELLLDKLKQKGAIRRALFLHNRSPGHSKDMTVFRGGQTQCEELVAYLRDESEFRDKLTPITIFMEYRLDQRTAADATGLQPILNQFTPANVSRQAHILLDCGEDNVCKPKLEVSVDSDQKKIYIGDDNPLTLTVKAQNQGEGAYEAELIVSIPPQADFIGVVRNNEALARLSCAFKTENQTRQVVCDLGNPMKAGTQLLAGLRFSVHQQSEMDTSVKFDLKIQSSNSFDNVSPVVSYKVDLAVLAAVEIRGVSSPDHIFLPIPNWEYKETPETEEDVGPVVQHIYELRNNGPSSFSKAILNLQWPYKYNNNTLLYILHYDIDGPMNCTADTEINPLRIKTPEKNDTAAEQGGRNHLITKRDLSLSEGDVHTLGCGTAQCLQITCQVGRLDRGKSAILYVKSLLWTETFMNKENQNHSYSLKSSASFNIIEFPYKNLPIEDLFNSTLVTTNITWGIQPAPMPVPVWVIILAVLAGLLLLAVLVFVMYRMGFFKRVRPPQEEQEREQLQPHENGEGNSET
T1 sequence (Q8R2H2 26-787): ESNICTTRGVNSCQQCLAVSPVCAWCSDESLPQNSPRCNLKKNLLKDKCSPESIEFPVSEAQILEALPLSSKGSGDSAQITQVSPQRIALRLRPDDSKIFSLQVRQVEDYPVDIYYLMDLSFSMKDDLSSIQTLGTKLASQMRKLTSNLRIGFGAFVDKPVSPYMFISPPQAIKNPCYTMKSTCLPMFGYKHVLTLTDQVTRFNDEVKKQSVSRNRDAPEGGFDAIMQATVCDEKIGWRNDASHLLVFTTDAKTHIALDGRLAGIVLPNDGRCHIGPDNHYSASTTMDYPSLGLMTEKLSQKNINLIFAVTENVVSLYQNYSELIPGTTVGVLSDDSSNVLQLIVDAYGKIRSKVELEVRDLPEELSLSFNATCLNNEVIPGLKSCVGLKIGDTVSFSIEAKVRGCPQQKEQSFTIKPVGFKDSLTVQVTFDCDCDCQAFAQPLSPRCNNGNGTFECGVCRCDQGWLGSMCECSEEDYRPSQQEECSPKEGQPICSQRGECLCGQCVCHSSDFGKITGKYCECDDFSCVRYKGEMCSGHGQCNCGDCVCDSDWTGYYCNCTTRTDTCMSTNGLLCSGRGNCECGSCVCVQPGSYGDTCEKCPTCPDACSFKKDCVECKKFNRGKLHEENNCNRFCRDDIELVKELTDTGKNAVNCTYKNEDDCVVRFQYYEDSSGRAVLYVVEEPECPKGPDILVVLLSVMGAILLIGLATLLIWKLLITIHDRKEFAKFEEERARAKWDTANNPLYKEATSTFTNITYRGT
Briefly: retraction of lamellipodia of rat osteoclasts. From the text: Osteoclasts were isolated from the long bones of 1-3 day old rats as described by Chambers et al., J. Cell Sci. 66: 383-399 (1984). Femora, tibiae and humera were dissected clean of soft tissue, split and scrapped with scalpels into 199 media pH 7-7.2 + 10% heat inactivated fetal calf serum + 100 U/ml antibiotics (penicillin G, steptomycin, amphotericin B, Gibco, New York). After gentle pipetting 60x with a wide bore pipette, the cell suspension was passed through a 110 um nylon mesh (Spectra) and aliquoted onto plastic dishes (Costar, Cambridge, MA), No. 1 coverslips (Corning, New York), glass cuvettes (Herminus) or bone slices (Arnett and Dempster, Endocrinology 120: 602-608 (1987)). All experiments with rat osteoclast cultures were conducted within the first 24 hr after isolation.
Rat or chicken osteoclasts were incubated with different concentrations of RGDS, echistatin and Ala²⁴ echistatin. All of these peptides induced morphological changes but rat osteoclasts 1 day after isolation on glass retracted lamellipodia at 10⁵x lower concentrations of echistatin (4.3 nM) compared to RGDS peptide. […] At these concentrations, extension/retraction and ruffling motility of the lamellipodia increased. […]

Test [4] addresses T1, rat osteoclasts. Briefly: bone slice resorption assay with rat osteoclasts. Particulars: range 1pM- 10 uM, P>0.07, Graph 3a. As to the method:
Osteoclasts, large multinucleated cells up to 400 microns in diameter and with abundant acidophilic cytoplasm which function in the absorption and removal of osseous tissue, use the integrin receptor to bind bone as part of the mechanism of bone resorption. […] Based on the release of [³H] proline from labelled bone particles, the IC₅₀ of chicken osteoclast resorption was 100 nM. By comparison, the RGDS synthetic tetrapeptide inhibited rat or chicken resorption with an IC₅₀ of 0.1 mM. Attachment experiments with chicken osteoclasts and bone particles labelled with [³H] proline confirmed that the mechanism of action of echistatin is to inhibit osteoclast binding to bone. Echistatin induces the retraction of osteoclast lamellipodia in a manner reminiscent of 1 nM calcitonin or 1 uM prostaglandin E₂.
Osteoclasts were isolated from the long bones of 1-3 day old rats as described by Chambers et al., J. Cell Sci. 66: 383-399 (1984). […]
Resorption of rat and some chicken osteoclasts was measured by using bone slices (4.4 x 4.4 x 0.2 mm) from the diaphysis of bovine femur (Isomet, Buehler Ltd., Lake Bluff, IL) which were cut with a low speed diamond saw as described by Arnett and Dempster, 1986. […] Resorption pits were quantitated by reflected light microscopy with crossed polarizers and rotatable lambda/4 plate (Sato and Grasser, J. Bone Min. Res. in press).

On to `CCCCC[C@H](O)/C=C/[C@H]1[C@H](O)CC(=O)[C@@H]1C/C=C\CCCC(=O)O` [prostaglandin E₂], for which the IC50 with chicken osteoclasts [1] (Gallus gallus, Osteoclast, 24 h, Graph 2a, 1 day resorption assay, read-out: IC₅₀ of resorption) was 1000 nM.
For Ala²⁴ echistatin, the “effects on the resorption activity” value in the test with chicken osteoclasts [1] (range 1pM- 10 uM, P>0.07, Graph 3a) is given as “insignificant effects”; on rat osteoclasts [4] it was “insignificant effects”. The “kinetics of bone attachment to osteoclasts” value with chicken osteoclasts [2] (10 nM) is reported as “no significant effect”. Besides, the “concentration at which lamellipodia retracted” value at rat osteoclasts [3] (rat osteoclasts 1 day after isolation on glass) is 34 nM. The “concentration at which lamellipodia did not retract” value on rat osteoclasts [3] (rat osteoclasts, followed for up to 2 hr) is on record as 3.4 nM.
Consider “H-ECESGPCCRNCKFLKEGTICKRARGDDMDDYCNGKTCDCPRNPHKGPAT-OH (disulfide 2-11, 7-32, 8-37, 20-39 (inferred)) [Synthetic Echistatin]”, for which the “attachment of bone particles to osteoclasts” value in the test with chicken osteoclasts [2] (100 nM, up to 150 min) is on record as “significantly inhibited”.
